Results reported in PMC6270751, “N-Substituted 5-Amino-6-methylpyrazine-2,3-dicarbonitriles: Microwave-Assisted Synthesis and Biological Properties” (Molecules, 2014).
≈ marks a conversion by molar mass, not a printed value. Where “and” joins values, the source holds several entries; their conditions need not be identical. Equal entries are not always repeated. Where two headings read alike, the source gives them in different places.

Tests used:
[1] = Lipophilicity log k by RP-HPLC; conditions: for log k: RP-HPLC capacity factor, C18, MeOH 70%/H2O 30%, 30 °C; for π: π = log k(substituted) – log k(unsubstituted)
From the text: Experimental lipophilicity parameter log k was ascertained using an Agilent Technologies 1200 SL HPLC system with a SL G1315C Diode-Array Detector, ZORBAX XDB-C18 5 μm, 4 × 4 mm, Part No. 7995118-504 chromatographic pre-column and ZORBAX Eclipse XDB-C18 5 μm, 4.6 × 250 mm, Part No. 7995118-585 column (Agilent Technologies Inc., Colorado Springs, CO, USA). The separation process was controlled by Agilent ChemStation, version B.04.02 extended by spectral module (Agilent Technologies Inc.). A solution of MeOH (HPLC grade, 70%) and H2O (HPLC-Milli-Q Grade, 30%) was used as mobile phase. The total flow of the column was 1.0 mL/min, injection 20 μL, column temperature 30 °C. Detection wavelength λ= 210 nm and monitor wavelength λ= 270 nm were chosen for this measurement. The KI methanol solution was used for the dead time (TD) determination. Retention times (TR) of synthesized compounds were measured in minutes. The capacity factors k were calculated using Microsoft Excel according to formula k = (TR − TD)/TD, where TR is the retention time of the solute and TD denotes the dead time obtained via an unretained analyte. Log k, calculated from the capacity factor k, is used as the lipophilicity index converted to log P scale.

[2] = test system: M. tuberculosis H37Rv CNCTC My 331/88; assay: Antimycobacterial in vitro screening, microdilution broth panel method, Alamar Blue; format: cell-based, Mycobacterium tuberculosis; conditions: 37 °C; for MIC: Mycobacterium tuberculosis, H37RV, 336 h, pH 6, Sula's medium pH 6.0, 14 days; for MIC M.tuberculosis H37Rv: Sula's medium pH 6.0, 14 days
[3] = test system: photosynthetic electron transport (PET) in spinach chloroplasts; assay: Inhibition of photosynthetic electron transport (PET) in spinach chloroplasts, DCPIP photoreduction; format: biochemical, Spinacia oleracea L.; conditions: for IC50 / IC50 PET inhibition in spinach chloroplasts: chlorophyll 30 mg/L, phosphate buffer pH 7.2
Method: Chloroplasts were prepared from spinach (Spinacia oleracea L.) according to Masarovicova and Kralova. The inhibition of photosynthetic electron transport (PET) in spinach chloroplasts was determined spectrophotometrically (Genesys 6, Thermo Scientific, Madison, WI, USA) using an artificial electron acceptor 2,6-dichlorophenol-indophenol (DCPIP) according to Kralova et al. and the rate of photosynthetic electron transport (PET) was monitored as a photo-reduction of DCPIP. The measurements were carried out in a phosphate buffer (0.02 mol/L, pH 7.2) containing sucrose (0.4 mol/L), MgCl2 (0.005 mol/L) and NaCl (0.015 mol/L). The chlorophyll content was 30 mg/L in these experiments and the samples were irradiated (~100 W/m^2) from a 10 cm distance with halogen lamp (250 W) using a 4 cm water filter to prevent warming of the samples (suspension temperature […]). The studied compounds were dissolved in DMSO due to their limited water solubility. […] The inhibitory efficiency of the studied compounds was expressed as the IC50 values, i.e., molar concentration of the compounds causing 50% decrease in the oxygen evolution relative to the untreated control.

[4] = test system: Trichophyton mentagrophytes 445; assay: Antifungal in vitro screening, microdilution broth method; format: cell-based; conditions: for MIC: Trichophyton mentagrophytes, 445, RPMI 1640, pH 7.0, 35 °C, read-out: MIC against Trichophyton mentagrophytes; for activity against Trichophyton mentagrophytes: result in words
Method: Antifungal evaluation was also accomplished with microdilution broth method. On the contrary, there was used RPMI 1640 broth with glutamine as medium and conditions were humid and dark atmosphere, pH 7.0 (buffered with 3-morpholinopropane-1-sulfonic acid) and 35 °C. Eight fungal strains were used (Candida albicans ATCC 44859, Candida tropicalis 156, Candida krusei E28, Candida glabrata 20/I, Trichosporon asahii 1188, Aspergillus fumigatus 231, Absidia corymbifera 272, Trichophyton mentagrophytes 445) together with 4 antimycotic standards amphotericin B, voriconazole, nystatin and fluconazole.

M. avium CNCTC My 152/73 = assay: Antimycobacterial in vitro screening, non-tuberculosis strain M. avium; format: cell-based, Mycobacterium avium; conditions: result in words
[5] = test system: M. kansasii CNCTC My 235/80; assay: Antimycobacterial in vitro screening, non-tuberculosis strain M. kansasii; format: cell-based, Mycobacterium kansasii; conditions: result in words
[6] = test system: photosynthetic electron transport (PET) in spinach chloroplasts; parameters: method as in earlier work; conditions: DCMU standard; read-out: IC50 PET inhibition in spinach chloroplasts (standard); cited from earlier work

Structure (SMILES) | log k [1] | π [1] | MIC [2] [mg/L] | MIC M.tuberculosis H37Rv [2] [mg/L] | IC50 [3] [µM] | PET inhibitory activity relative to DCMU (times lower) ([3]; ratio of IC50 to standard DCMU) [times] | IC50 PET inhibition in spinach chloroplasts [3] | MIC [4] [µM] | activity against Trichophyton mentagrophytes [4] | activity against M. avium 152 (M. avium CNCTC My 152/73) | activity against M. kansasii [5] | IC50 [6]
Cc1ccccc1CNc1nc(C#N)c(C#N)nc1C [Compound 1, 5-Methyl-6-[(2-methylbenzyl)amino]pyrazine-2,3-dicarbonitrile] | 0.4668 | 0.1674 | > 100 | >100 | 114 | – | – | – | – | – | – | –
Cc1nc(C#N)c(C#N)nc1NCc1cccc(C(F)(F)F)c1 [Compound 2, 5-Methyl-6-{[3-(trifluoromethyl)benzyl]amino}pyrazine-2,3-dicarbonitrile] | 0.5369 | 0.2375 | 12.5 (≈ 39.4 µM) | – | 37.7 | – | – | – | – | – | – | –
Cc1nc(C#N)c(C#N)nc1NCc1ccc(Cl)c(Cl)c1 [Compound 3, 5-[(3,4-Dichlorobenzyl)amino]-6-methylpyrazine-2,3-dicarbonitrile] | 0.7538 | 0.4544 | 6.25 (≈ 19.6 µM) | – | 16.4 | 8.6 | – | – | – | – | – | –
Cc1ccc(CNc2nc(C#N)c(C#N)nc2C)cc1 [Compound 4, 5-Methyl-6-[(4-methylbenzyl)amino]pyrazine-2,3-dicarbonitrile] | 0.5157 | 0.2163 | 25 (≈ 94.9 µM) | – | 105 | – | – | – | – | – | – | –
COc1ccc(CNc2nc(C#N)c(C#N)nc2C)cc1 [Compound 5, 5-[(4-Methoxybenzyl)amino]-6-methylpyrazine-2,3-dicarbonitrile] | 0.2820 | −0.0174 | > 100 | >100 | 465 | – | – | – | – | – | – | –
Cc1nc(C#N)c(C#N)nc1NCc1ccccc1 [Compound 6, 5-(Benzylamino)-6-methylpyrazine-2,3-dicarbonitrile] | 0.2994 | 0 | 25 (≈ 100 µM) | – | – | – | inactive | – | – | – | – | –
Cc1nc(C#N)c(C#N)nc1NCc1ccc(N)cc1 [Compound 7, 5-[(4-Aminobenzyl)amino]-6-methylpyrazine-2,3-dicarbonitrile] | −0.2014 | −0.5008 | 25 (≈ 94.6 µM) | – | – | – | inactive | 500 (≈ 132 µg/mL) | insignificant activity | – | – | –
Cc1nc(C#N)c(C#N)nc1NCc1cccc(Cl)c1 [Compound 8, 5-[(3-Chlorobenzyl)amino]-6-methylpyrazine-2,3-dicarbonitrile] | 0.5172 | 0.2178 | 12.5 (≈ 44.1 µM) | – | 57.4 | – | – | – | – | – | – | –
Cc1nc(C#N)c(C#N)nc1NCc1ccccc1Cl [Compound 9, 5-[(2-Chlorobenzyl)amino]-6-methylpyrazine-2,3-dicarbonitrile] | 0.4663 | 0.1669 | 6.25 (≈ 22 µM) | – | 79 | – | – | – | – | – | – | –
Cc1nc(C#N)c(C#N)nc1NCc1ccccc1F [Compound 10, 5-[(2-Fluorobenzyl)amino]-6-methylpyrazine-2,3-dicarbonitrile] | 0.3042 | 0.0048 | 12.5 (≈ 46.8 µM) | – | 196 | – | – | 500 (≈ 134 µg/mL) | insignificant activity | – | – | –
Cc1nc(C#N)c(C#N)nc1NCc1ccc(C(F)(F)F)cc1 [Compound 11, 5-Methyl-6-{[4-(trifluoromethyl)benzyl]amino}pyrazine-2,3-dicarbonitrile] | 0.5626 | 0.2632 | 6.25 (≈ 19.7 µM) | – | 39.6 | – | – | – | – | active | active | –
Cc1nc(C#N)c(C#N)nc1NCc1ccccc1C(F)(F)F [Compound 12, 5-Methyl-6-{[2-(trifluoromethyl)benzyl]amino}pyrazine-2,3-dicarbonitrile] | 0.4865 | 0.1871 | 12.5 (≈ 39.4 µM) | – | 71.6 | – | – | 125 (≈ 39.7 µg/mL) | – | active | active | –
COc1ccc(CNc2nc(C#N)c(C#N)nc2C)c(OC)c1 [Compound 13, 5-[(2,4-Dimethoxybenzyl)amino]-6-methylpyrazine-2,3-dicarbonitrile] | 0.3699 | 0.0705 | 25 (≈ 80.8 µM) | – | – | – | inactive | – | – | – | – | –
Cc1nc(C#N)c(C#N)nc1NCc1cccc([N+](=O)[O-])c1 [Compound 14, 5-Methyl-6-[(3-nitrobenzyl)amino]pyrazine-2,3-dicarbonitrile] | 0.1808 | −0.1186 | 12.5 (≈ 42.5 µM) | – | 487 | – | – | – | – | – | – | –
Cc1nc(C#N)c(C#N)nc1NCc1ccc(Cl)cc1 [Compound 15, 5-[(4-Chlorobenzyl)amino]-6-methylpyrazine-2,3-dicarbonitrile] | 0.5384 | 0.2390 | 12.5 (≈ 44.1 µM) | – | 86.5 | – | – | – | insignificant activity | – | – | –
CN(C)C(=O)Nc1ccc(Cl)c(Cl)c1 [DCMU, 3-(3,4-dichlorophenyl)-1,1-dimethylurea] | – | – | – | – | – | – | – | – | – | – | – | ~1.9 µM and 1.9 µM
NNC(=O)c1ccncc1 [INH, isoniazid, reference compound] | – | – | 1.56 (≈ 11.4 µM) | – | – | – | – | – | – | – | – | –
NC(=O)c1cnccn1 [PZA, pyrazinamide, reference compound] | – | – | 12.5 (≈ 102 µM) | – | – | – | – | – | – | – | – | –
